Patent US20020058843A1, “Novel group IV metal precursors and a method of chemical vapor deposition using the same” (priority 2000, published 2002)
Entries after “also recorded” stand apart in the source; their conditions may differ. Each block holds one substance with its values, some of them ahead of it.

Assays:
Type in all cases: physicochemical
[1] = Residue amount by thermal gravimetric analysis (TGA); conditions: for Residue amount: TGA, atmospheric pressure, N2 20 ml/min, residual weight at 550° C.; for Residues after being vaporized: in words
Method: (§1) The physical properties set forth in Tables 1 and 2 were measured by the following method: the melting point and vaporization temperature were measured from endothermic peaks of TG-DSC curves. However, the values indicated by the symbol * in Table 1 were measured by a melting point-measuring device, because the heat absorption by vaporization occurred along with the melting of the precursors during the measurement. The residue amounts were measured by thermal gravimetric analysis (TGA) under atmospheric pressure (N2, 20 ml/min) and recorded as residual weight of the precursors at 550° C.

[2] = Vaporization temperature from endothermic peaks of TG-DSC curves; conditions: for Vaporization temp.: endothermic peak of TG-DSC curve
Method: as §1
(§2) TG-DSC analysis for the precursor Ti(eip)2 according to Example 11 and the precursor Ti(2meip)2 according to Example 12 was carried out under atmospheric pressure in nitrogen gas or in air, and under a reduced pressure (1.3 mbar) using Netzsch STA 449C equipment. In this analysis, the precursors were heated to 550° C. at a scanning rate of 10° C./min in nitrogen gas of a flow rate of 20 ml/min, or in air of a flow rate of 30 ml/min.
(§3) (see, FIG. 1b). […] This difference is due to that Ti(2meip)2 has a relatively weak Ti-N bond compared with a Ti-O bond and has a homoleptic structure.

[3] = Solubility of precursor in organic solvents; conditions: for Solubility in methanol: 0.5 g in 5 ml of methanol; for Solubility in n-butyl acetate: 0.5 g in 5 ml of n-butyl acetate
Method: To evaluate solubility of precursors required in introducing the precursors in liquid phase for the deposition of thin films, the precursor Ti(eip)2 prepared in Example 11 and the precursor Ti(2meip)2 prepared in Example 12 were dissolved in methanol and n-butyl acetate, respectively. […] In contrast, 0.5 g of the precursor Ti(2meip)2 containing asymmetric carbons on its ligand was soluble in both methanol and n-butyl acetate.

[4] = TG-DSC analysis in air (thermal decomposition); conditions: for Thermal decomposition behaviour (exothermic peak): in words
Method: as §2, §3

[5] = Moisture proof of precursor (left to stand in air, NMR analysis); conditions: left to stand in air for three months or more
Method: 1.0 g of the precursor Ti(eip)2 prepared in Example 11 and 1.0 9 of the precursor Ti(2meip)2 prepared in Example 12 were placed in vials, respectively, and left to stand in air for three months or more. The analysis by NMR of the precursors was then carried out.

[6] = Vaporization rates according to temperature by thermogravimetric analysis (FIG. 4); conditions: vs Ti(mpd)(thd)2, Ti(thd)2(O-iPr)2, Ba(methd)2, Sr(methd)2
Excerpt: Moreover, vaporization rates of the precursor Ti(2meip)2 was compared to that of the commercial precursors Ti(mpd)(thd)2, Ti(thd)2 (O-iPr)2, Ba(methd)2 and Sr(methd)2 The results are shown in FIG. 4.

Substance: Barium bis[1-methoxyethoxy-2,2,6,6-tetramethyl-3,5-heptanedionate] [Ba(methd)2, reference compound]
Residue amount ([1]; Table 2, prior art precursors): 8.3%
Vaporization temp. ([2]; Table 2, prior art precursors): 391 °C

Substance: Titanium bis[4-(1-ethylethoxy)imino-2-pentanoate] [Ti(1eeip)2]
Residue amount ([1]; Table 1): 7.6%
Vaporization temp. ([2]; Table 1): 303 °C

Substance: Strontium bis[1-methoxyethoxy-2,2,6,6-tetramethyl-3,5-heptanedionate] [Sr(methd)2, reference compound]
Residue amount ([1]; Table 2, prior art precursors): 3.1%
Vaporization temp. ([2]; Table 2, prior art precursors): 389 °C

Substance: Titanium bis[2,2-dimethyl-5-(2-methylethoxy)imino-3-heptanoate] [Ti(22dm2meih)2]
Enhanced solubility over the precursor Ti(2meip)2 ([3]; relative to Ti(2meip)2): 20%
Residue amount ([1]; Table 1): 0.5%
Residues after being vaporized [1]: no residues
Vaporization temp. ([2]; Table 1): 287 °C
Temperature at which the precursor is vaporized ([2]; atmospheric pressure / nitrogen atmosphere, without thermal decomposition): 287 °C

Substance: Titanium [2-methyl-2,4-dioxy-pentane]-bis[(2,2,6,6-tetramethyl-3,5-heptanedionate)] [Ti(mpd)(thd)2, reference compound]
Thermal decomposition behaviour (exothermic peak) [4]: weak exothermic peak over a wide range of temperature
Residue amount ([1]; Table 2, prior art precursors): <0.5%
Vaporization temp. ([2]; Table 2, prior art precursors): 248 °C

Substance: Titanium bis[2,2-dimethyl-5-(ethoxy)imino-3-heptanoate] [Ti(22dmeih)2]
Residue amount ([1]; Table 1): 10.6%
Vaporization temp. ([2]; Table 1): 307 °C

Substance: Titanium bis[2,6-dimethyl-5-(2-methylethoxy)imino-3-heptanoate] [Ti(26dm2meih)2]
Residue amount ([1]; Table 1): 8.3%
Vaporization temp. ([2]; Table 1): 283 °C

Substance: Titanium bis[2,6-dimethyl-5-(1-methylethoxy)imino-3-heptanoate] [Ti(26dm1meih)2]
Residue amount ([1]; Table 1): 3.6%
Vaporization temp. ([2]; Table 1): 285 °C

Substance: Titanium bis[4-(1,1-dimethylethoxy)imino-2-pentanoate] [Ti(1deip)2]
Residue amount ([1]; Table 1): 13.7%
Vaporization temp. ([2]; Table 1): 290 °C

Now from value to substance, other results behind:

Residue amount ([1]; Table 1): 26.6%
Substance: Titanium bis[4-(n-propoxy)imino-2-pentanoate] [Ti(pip)2]

Solubility in methanol [3]: soluble
Solubility in n-butyl acetate [3]: soluble
Thermal decomposition, exothermic peak temperature ([4]; TG-DSC in air, 30 ml/min, 10° C./min): about 315 °C
Vapor pressure at the respective temperatures compared to the commercial precursors [6]: low in their vapor pressure
Residue amount ([1]; Table 1): <0.5%
Residues after being vaporized [1]: no residues
Vaporization temp. ([2]; Table 1): 290 °C
Substance: Titanium bis[4-(2-methylethoxy)imino-2-pentanoate] [Ti(2meip)2]
Stability on standing in air (NMR) [5]: no peaks of non-coordinated ligands; also recorded: not structurally changed

Residue amount ([1]; Table 1): 3.3%
Vaporization temp. ([2]; Table 1): 295 °C
Substance: Titanium bis[4-(1-methylethoxy)imino-2-pentanoate] [Ti(1meip)2]

Residue amount ([1]; Table 2, prior art precursors): 7%
Vaporization temp. ([2]; Table 2, prior art precursors): 240 °C
Substance: Titanium bis(iso-propoxide)bis[(2,2,6,6-tetramethyl-3,5-heptanedionate)] [Ti(OiPr)2(thd)2, reference compound]
Thermal decomposition behaviour (exothermic peak) [4]: weak exothermic peak over a wide range of temperature

Solubility in methanol [3]: soluble
Solubility in n-butyl acetate [3]: insoluble
Stability on standing in air (NMR) [5]: no peaks of non-coordinated ligands
Residue after evaporation [1]: about 8%
Residue amount ([1]; Table 1): 8.0%
Vaporization temp. ([2]; Table 1): 323 °C
Substance: Titanium bis[4-(ethoxy)imino-2-pentanoate] [Ti(eip)2]
